In the NIST ThermoML archive (doi:10.1016/j.jct.2011.07.008):

Key:
[1] = mn = molality of the nth substance listed, in mol/kg; conditions: 101 kPa, Liquid; for viscosity: Capillary tube (Ostwald / Ubbelohde) method
[2] = 298.15 K; 101.33 kPa; Liquid; Pycnometric method
[3] = refractive index (Na D-line) (dimensionless); conditions: 298.15 K; 101.33 kPa; Liquid; Standard Abbe refractometry

COCCOCCO [2-(2-methoxyethoxy)ethanol] + O
[1]
Conditions | viscosity [mPa·s]
275.15 K, m1 = 0.0099 | 1.004
275.15 K, m1 = 0.0209 | 1.009
275.15 K, m1 = 0.0309 | 1.014
275.15 K, m1 = 0.0396 | 1.018
275.15 K, m1 = 0.052 | 1.023
275.15 K, m1 = 0.061 | 1.028
275.15 K, m1 = 0.0706 | 1.032
275.15 K, m1 = 0.0799 | 1.037
275.15 K, m1 = 0.093 | 1.044
275.15 K, m1 = 0.1057 | 1.05
283.15 K, m1 = 0.0109 | 1.004
283.15 K, m1 = 0.0191 | 1.008
283.15 K, m1 = 0.0303 | 1.012
283.15 K, m1 = 0.0406 | 1.016
283.15 K, m1 = 0.0487 | 1.02
283.15 K, m1 = 0.0599 | 1.024
283.15 K, m1 = 0.0709 | 1.029
283.15 K, m1 = 0.0806 | 1.033
283.15 K, m1 = 0.09 | 1.037
283.15 K, m1 = 0.0901 | 1.037
283.15 K, m1 = 0.1009 | 1.041

[1]
Conditions | mass density [kg/m3]
275.15 K, Pycnometric method, m1 = 0.0099 | 1000.07
275.15 K, Pycnometric method, m1 = 0.0209 | 1000.18
275.15 K, Pycnometric method, m1 = 0.0309 | 1000.32
275.15 K, Pycnometric method, m1 = 0.0396 | 1000.42
275.15 K, Pycnometric method, m1 = 0.052 | 1000.56
275.15 K, Pycnometric method, m1 = 0.061 | 1000.66
275.15 K, Pycnometric method, m1 = 0.0706 | 1000.76
275.15 K, Pycnometric method, m1 = 0.0799 | 1000.86
275.15 K, Pycnometric method, m1 = 0.093 | 1000.98
275.15 K, Pycnometric method, m1 = 0.1057 | 1001.12
283.15 K, Buoyancy - hydrostatic balance with magnetic suspension - one sinker, m1 = 0.0109 | 999.8
283.15 K, Buoyancy - hydrostatic balance with magnetic suspension - one sinker, m1 = 0.0191 | 999.93
283.15 K, Buoyancy - hydrostatic balance with magnetic suspension - one sinker, m1 = 0.0303 | 1000.04
283.15 K, Buoyancy - hydrostatic balance with magnetic suspension - one sinker, m1 = 0.0406 | 1000.11
283.15 K, Buoyancy - hydrostatic balance with magnetic suspension - one sinker, m1 = 0.0487 | 1000.17
283.15 K, Buoyancy - hydrostatic balance with magnetic suspension - one sinker, m1 = 0.0599 | 1000.27
283.15 K, Buoyancy - hydrostatic balance with magnetic suspension - one sinker, m1 = 0.0709 | 1000.38
283.15 K, Buoyancy - hydrostatic balance with magnetic suspension - one sinker, m1 = 0.0806 | 1000.47
283.15 K, Buoyancy - hydrostatic balance with magnetic suspension - one sinker, m1 = 0.09 | 1000.56
283.15 K, Buoyancy - hydrostatic balance with magnetic suspension - one sinker, m1 = 0.0901 | 1000.59
283.15 K, Buoyancy - hydrostatic balance with magnetic suspension - one sinker, m1 = 0.1009 | 1000.68

O [water] + CCOCCOCCO
[1], m2 = 0
Conditions | viscosity [mPa·s]
275.15 K | 1.674
283.15 K | 1.31

[1], m2 = 0
Conditions | mass density [kg/m3]
275.15 K, Pycnometric method | 999.94
283.15 K, Buoyancy - hydrostatic balance with magnetic suspension - one sinker | 999.7

O [water] + CCOCCO
[1], m2 = 0
Conditions | viscosity [mPa·s]
275.15 K | 1.674
283.15 K | 1.31

[1], m2 = 0
Conditions | mass density [kg/m3]
275.15 K, Pycnometric method | 999.94
283.15 K, Buoyancy - hydrostatic balance with magnetic suspension - one sinker | 999.7

COCCO [2-methoxyethan-1-ol] + O
[1]
Conditions | viscosity [mPa·s]
275.15 K, m1 = 0.0097 | 1.006
275.15 K, m1 = 0.0205 | 1.011
275.15 K, m1 = 0.0313 | 1.016
275.15 K, m1 = 0.0393 | 1.02
275.15 K, m1 = 0.0487 | 1.023
275.15 K, m1 = 0.0638 | 1.028
275.15 K, m1 = 0.0719 | 1.03
275.15 K, m1 = 0.0813 | 1.032
275.15 K, m1 = 0.0905 | 1.034
275.15 K, m1 = 0.102 | 1.035
283.15 K, m1 = 0.0104 | 1.001
283.15 K, m1 = 0.0193 | 1.002
283.15 K, m1 = 0.0326 | 1.005
283.15 K, m1 = 0.0417 | 1.006
283.15 K, m1 = 0.0492 | 1.008
283.15 K, m1 = 0.0599 | 1.011
283.15 K, m1 = 0.0698 | 1.013
283.15 K, m1 = 0.0804 | 1.016
283.15 K, m1 = 0.0893 | 1.019
283.15 K, m1 = 0.0901 | 1.019
283.15 K, m1 = 0.1 | 1.023
283.15 K, m1 = 0.1013 | 1.023

[1]
Conditions | mass density [kg/m3]
275.15 K, Pycnometric method, m1 = 0.0097 | 999.96
275.15 K, Pycnometric method, m1 = 0.0205 | 999.99
275.15 K, Pycnometric method, m1 = 0.0313 | 999.99
275.15 K, Pycnometric method, m1 = 0.0393 | 1000.02
275.15 K, Pycnometric method, m1 = 0.0487 | 1000.07
275.15 K, Pycnometric method, m1 = 0.0638 | 1000.09
275.15 K, Pycnometric method, m1 = 0.0719 | 1000.1
275.15 K, Pycnometric method, m1 = 0.0813 | 1000.12
275.15 K, Pycnometric method, m1 = 0.0905 | 1000.12
275.15 K, Pycnometric method, m1 = 0.102 | 1000.17
283.15 K, Buoyancy - hydrostatic balance with magnetic suspension - one sinker, m1 = 0.0104 | 999.73
283.15 K, Buoyancy - hydrostatic balance with magnetic suspension - one sinker, m1 = 0.0193 | 999.73
283.15 K, Buoyancy - hydrostatic balance with magnetic suspension - one sinker, m1 = 0.0326 | 999.76
283.15 K, Buoyancy - hydrostatic balance with magnetic suspension - one sinker, m1 = 0.0417 | 999.81
283.15 K, Buoyancy - hydrostatic balance with magnetic suspension - one sinker, m1 = 0.0492 | 999.79
283.15 K, Buoyancy - hydrostatic balance with magnetic suspension - one sinker, m1 = 0.0599 | 999.88
283.15 K, Buoyancy - hydrostatic balance with magnetic suspension - one sinker, m1 = 0.0698 | 999.93
283.15 K, Buoyancy - hydrostatic balance with magnetic suspension - one sinker, m1 = 0.0804 | 999.91
283.15 K, Buoyancy - hydrostatic balance with magnetic suspension - one sinker, m1 = 0.0893 | 999.94
283.15 K, Buoyancy - hydrostatic balance with magnetic suspension - one sinker, m1 = 0.0901 | 999.94
283.15 K, Buoyancy - hydrostatic balance with magnetic suspension - one sinker, m1 = 0.1 | 999.95
283.15 K, Buoyancy - hydrostatic balance with magnetic suspension - one sinker, m1 = 0.1013 | 999.97

CCOCCOCCO [3,6-dioxa-1-octanol]
Conditions | mass density [kg/m3] | refractive index
[2] | 984.045 | –
[3] | – | 1.4253

COCCOCCO [2-(2-methoxyethoxy)ethanol]
Conditions | mass density [kg/m3] | refractive index
[2] | 1014.39 | –
[3] | – | 1.4245
